Experimental data as given in US20240092758A1, “IMIDAZOLO INDAZOLE COMPOUNDS AS JAK INHIBITORS” (Theravance Biopharma R&D IP, LLC, priority 2021, published 2024).

How the values were obtained:
JAK1 = JAK1 (Homo sapiens (Human), UniProt P23458); test: Biochemical JAK kinase assay (LanthaScreen), JAK1; conditions: for Ki: read-out: JAK1 pKi (converted)
How it was run: (§1)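 LanthaScreen format: phospho-STAT1 (pTyr701) detected with 2 nM Tb antibody after 10 mM EDTA quench. Kinase step used Km-level ATP and 200 nM STAT1 peptide, 1 h at ambient after 1 h pre-incubation. Inhibition fitted to IC50, reported as pKi.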

TYK2 = TYK2 (Homo sapiens (Human), UniProt P29597); test: Biochemical JAK kinase assay (LanthaScreen), Tyk2; conditions: read-out: Tyk2 pKi (converted)
How it was run: as §1

[1] = tested on: IL-13 induced STAT6 phosphorylation in BEAS-2B human lung epithelial cells; test: Cellular JAKI potency assay (BEAS-2B); type: cell-based; conditions: Homo sapiens, BEAS-2B, BEAS-2B cells, read-out: BEAS2B pIC50 (converted)
How it was run: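 BEAS-2B cells were preincubated with compound (0.1% DMSO) in HBSS/HEPES/BSA for 1 h at 37 °C, then stimulated with IL-13 (80 ng/mL before addition) for 30 min. After lysis, pSTAT6 (Tyr641) was quantified by AlphaLISA SureFire; IC50 from a 4-parameter fit of percent inhibition, reported as pIC50.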

JAK2 = JAK2 (Homo sapiens (Human), UniProt O60674); test: Biochemical JAK kinase assay (LanthaScreen), JAK2; conditions: for Ki: read-out: JAK2 pKi (converted)
How it was run: as §1

JAK3 = JAK3 (Homo sapiens (Human), UniProt P52333); test: Biochemical JAK kinase assay (LanthaScreen), JAK3; conditions: read-out: JAK3 pKi (converted)
Experimental: A panel of four LanthaScreen JAK biochemical assays (JAK1, 2, 3 and Tyk2) were carried in a common kinase reaction buffer (50 mM HEPES, pH 7.5, 0.01% Brij-35, 10 mM MgCl2, and 1 mM EGTA). Recombinant GST-tagged JAK enzymes and a GFP-tagged STAT1 peptide substrate were obtained from Life Technologies.
Serially diluted compounds were pre-incubated with each of the four JAK enzymes and the substrate in white 384-well microplates (Corning) at ambient temperature for 1 h. ATP was subsequently added to initiate the kinase reactions in 10 μL total volume, with 1% DMSO. The final enzyme concentrations for JAK1, 2, 3 and Tyk2 are 4.2 nM, 0.1 nM, 1 nM, and 0.25 nM respectively; the corresponding Km ATP concentrations used are 25 μM, 3 μM, 1.6 μM, and 10 μM; while the substrate concentration is 200 nM for all four assays. Kinase reactions were allowed to proceed for 1 hour at ambient temperature before a 10 μL preparation of EDTA (10 mM final concentration) and Tb-anti-pSTAT1 (pTyr701) antibody (Life Technologies, 2 nM final concentration) in TR-FRET dilution buffer (Life Technologies) was added. The plates were allowed to incubate at ambient temperature for 1 h before being read on the EnVision reader (Perkin Elmer). Emission ratio signals (520 nm/495 nm) were recorded and utilized to calculate the percent inhibition values based on DMSO and background controls.
For dose-response analysis, percent inhibition data were plotted vs. compound concentrations, and IC50 values were determined from a 4-parameter robust fit model with the Prism software (GraphPad Software). Results were expressed as pIC50 (negative logarithm of IC50) and subsequently converted to pKi (negative logarithm of dissociation constant, Ki) using the Cheng-Prusoff equation.
Test compounds having a lower Ki value or higher pKi value in the four JAK assays show greater inhibition of JAK activity.

JAK2, sequence (O60674 whole entry): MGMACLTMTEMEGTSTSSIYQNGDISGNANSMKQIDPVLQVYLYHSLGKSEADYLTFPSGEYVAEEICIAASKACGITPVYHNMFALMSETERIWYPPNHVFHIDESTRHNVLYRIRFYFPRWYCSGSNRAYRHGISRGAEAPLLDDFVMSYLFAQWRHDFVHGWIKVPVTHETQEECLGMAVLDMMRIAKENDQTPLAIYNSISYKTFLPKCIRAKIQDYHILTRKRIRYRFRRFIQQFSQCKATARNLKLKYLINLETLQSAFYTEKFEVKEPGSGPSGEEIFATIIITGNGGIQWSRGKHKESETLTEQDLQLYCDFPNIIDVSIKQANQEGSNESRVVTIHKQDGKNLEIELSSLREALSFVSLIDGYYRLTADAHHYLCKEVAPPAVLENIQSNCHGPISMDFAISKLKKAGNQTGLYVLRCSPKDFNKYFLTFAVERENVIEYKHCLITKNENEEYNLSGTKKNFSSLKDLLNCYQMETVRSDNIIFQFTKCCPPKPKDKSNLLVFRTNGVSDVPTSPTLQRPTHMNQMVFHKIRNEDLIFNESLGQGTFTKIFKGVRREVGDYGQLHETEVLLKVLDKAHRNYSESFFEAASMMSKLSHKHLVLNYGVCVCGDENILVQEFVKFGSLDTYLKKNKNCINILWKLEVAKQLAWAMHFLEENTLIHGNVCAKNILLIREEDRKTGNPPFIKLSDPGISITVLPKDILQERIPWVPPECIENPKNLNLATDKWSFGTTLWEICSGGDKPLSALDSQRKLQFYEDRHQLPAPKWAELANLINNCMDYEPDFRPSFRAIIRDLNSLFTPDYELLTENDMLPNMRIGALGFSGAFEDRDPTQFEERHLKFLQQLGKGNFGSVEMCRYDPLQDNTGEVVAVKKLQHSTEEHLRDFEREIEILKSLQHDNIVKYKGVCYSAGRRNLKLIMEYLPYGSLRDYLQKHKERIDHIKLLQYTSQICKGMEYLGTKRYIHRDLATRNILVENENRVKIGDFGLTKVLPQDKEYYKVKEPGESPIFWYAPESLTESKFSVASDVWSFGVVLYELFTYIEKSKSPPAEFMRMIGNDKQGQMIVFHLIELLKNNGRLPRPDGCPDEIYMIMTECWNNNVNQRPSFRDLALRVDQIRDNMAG
JAK1, sequence (P23458 whole entry): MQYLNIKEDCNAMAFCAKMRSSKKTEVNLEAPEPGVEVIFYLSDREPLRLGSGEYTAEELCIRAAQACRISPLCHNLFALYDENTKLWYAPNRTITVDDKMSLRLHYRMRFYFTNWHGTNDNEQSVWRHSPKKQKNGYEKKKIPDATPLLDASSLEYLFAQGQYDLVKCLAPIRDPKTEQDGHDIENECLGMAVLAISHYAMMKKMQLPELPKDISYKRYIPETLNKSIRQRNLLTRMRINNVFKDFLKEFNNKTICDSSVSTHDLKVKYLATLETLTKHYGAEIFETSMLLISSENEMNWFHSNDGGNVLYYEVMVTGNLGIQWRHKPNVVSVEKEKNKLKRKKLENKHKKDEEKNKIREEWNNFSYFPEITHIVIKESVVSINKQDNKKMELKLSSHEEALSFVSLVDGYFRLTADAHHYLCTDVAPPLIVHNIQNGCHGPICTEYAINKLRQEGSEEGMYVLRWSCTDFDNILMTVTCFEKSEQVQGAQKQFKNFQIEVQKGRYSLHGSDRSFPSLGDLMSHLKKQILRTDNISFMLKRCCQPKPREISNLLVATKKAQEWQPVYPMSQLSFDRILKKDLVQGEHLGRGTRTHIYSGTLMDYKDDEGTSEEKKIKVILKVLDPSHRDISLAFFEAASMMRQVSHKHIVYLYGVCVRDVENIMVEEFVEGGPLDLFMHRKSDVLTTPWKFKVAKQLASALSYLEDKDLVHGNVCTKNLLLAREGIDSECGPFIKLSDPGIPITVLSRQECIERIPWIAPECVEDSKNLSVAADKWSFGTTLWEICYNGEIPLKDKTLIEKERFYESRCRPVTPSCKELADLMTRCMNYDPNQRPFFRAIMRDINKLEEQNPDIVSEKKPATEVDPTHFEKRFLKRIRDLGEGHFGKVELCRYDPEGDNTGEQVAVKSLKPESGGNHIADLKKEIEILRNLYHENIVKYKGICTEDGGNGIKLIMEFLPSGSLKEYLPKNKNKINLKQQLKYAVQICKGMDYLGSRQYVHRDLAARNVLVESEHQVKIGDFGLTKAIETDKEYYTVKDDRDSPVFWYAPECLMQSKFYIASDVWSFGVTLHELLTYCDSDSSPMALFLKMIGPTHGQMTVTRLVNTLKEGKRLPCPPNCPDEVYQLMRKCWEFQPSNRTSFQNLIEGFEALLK
TYK2, sequence (P29597 whole entry): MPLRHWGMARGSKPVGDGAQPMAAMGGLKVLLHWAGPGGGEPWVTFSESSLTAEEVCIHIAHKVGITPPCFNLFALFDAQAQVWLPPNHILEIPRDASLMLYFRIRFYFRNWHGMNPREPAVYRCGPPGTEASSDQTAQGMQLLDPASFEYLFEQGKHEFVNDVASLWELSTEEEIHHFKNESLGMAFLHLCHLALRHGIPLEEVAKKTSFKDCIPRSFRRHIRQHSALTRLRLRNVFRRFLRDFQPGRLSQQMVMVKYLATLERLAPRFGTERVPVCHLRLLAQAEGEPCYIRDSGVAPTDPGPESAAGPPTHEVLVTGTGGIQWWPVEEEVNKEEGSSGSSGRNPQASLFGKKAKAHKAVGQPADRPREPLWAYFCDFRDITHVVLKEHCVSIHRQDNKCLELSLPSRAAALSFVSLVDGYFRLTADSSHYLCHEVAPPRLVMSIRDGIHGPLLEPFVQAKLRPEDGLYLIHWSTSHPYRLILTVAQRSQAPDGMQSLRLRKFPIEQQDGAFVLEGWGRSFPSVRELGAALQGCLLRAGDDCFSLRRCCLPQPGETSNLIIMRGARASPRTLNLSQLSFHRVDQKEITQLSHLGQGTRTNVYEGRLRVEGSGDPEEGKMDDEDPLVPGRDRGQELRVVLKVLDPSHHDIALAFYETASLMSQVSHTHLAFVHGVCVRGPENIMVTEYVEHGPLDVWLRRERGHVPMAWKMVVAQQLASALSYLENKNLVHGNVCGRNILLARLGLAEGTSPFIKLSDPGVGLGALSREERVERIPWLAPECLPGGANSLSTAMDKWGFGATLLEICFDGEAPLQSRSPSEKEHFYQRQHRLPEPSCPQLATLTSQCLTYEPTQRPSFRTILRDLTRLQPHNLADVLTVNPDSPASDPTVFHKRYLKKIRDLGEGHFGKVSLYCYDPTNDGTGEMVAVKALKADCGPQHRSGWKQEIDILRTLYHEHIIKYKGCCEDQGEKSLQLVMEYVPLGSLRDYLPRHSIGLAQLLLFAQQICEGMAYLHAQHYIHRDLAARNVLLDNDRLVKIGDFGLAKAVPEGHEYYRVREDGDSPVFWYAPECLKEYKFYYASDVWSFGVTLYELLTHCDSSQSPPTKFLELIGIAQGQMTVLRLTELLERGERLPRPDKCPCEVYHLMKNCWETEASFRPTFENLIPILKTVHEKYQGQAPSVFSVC
JAK3, sequence (P52333 whole entry): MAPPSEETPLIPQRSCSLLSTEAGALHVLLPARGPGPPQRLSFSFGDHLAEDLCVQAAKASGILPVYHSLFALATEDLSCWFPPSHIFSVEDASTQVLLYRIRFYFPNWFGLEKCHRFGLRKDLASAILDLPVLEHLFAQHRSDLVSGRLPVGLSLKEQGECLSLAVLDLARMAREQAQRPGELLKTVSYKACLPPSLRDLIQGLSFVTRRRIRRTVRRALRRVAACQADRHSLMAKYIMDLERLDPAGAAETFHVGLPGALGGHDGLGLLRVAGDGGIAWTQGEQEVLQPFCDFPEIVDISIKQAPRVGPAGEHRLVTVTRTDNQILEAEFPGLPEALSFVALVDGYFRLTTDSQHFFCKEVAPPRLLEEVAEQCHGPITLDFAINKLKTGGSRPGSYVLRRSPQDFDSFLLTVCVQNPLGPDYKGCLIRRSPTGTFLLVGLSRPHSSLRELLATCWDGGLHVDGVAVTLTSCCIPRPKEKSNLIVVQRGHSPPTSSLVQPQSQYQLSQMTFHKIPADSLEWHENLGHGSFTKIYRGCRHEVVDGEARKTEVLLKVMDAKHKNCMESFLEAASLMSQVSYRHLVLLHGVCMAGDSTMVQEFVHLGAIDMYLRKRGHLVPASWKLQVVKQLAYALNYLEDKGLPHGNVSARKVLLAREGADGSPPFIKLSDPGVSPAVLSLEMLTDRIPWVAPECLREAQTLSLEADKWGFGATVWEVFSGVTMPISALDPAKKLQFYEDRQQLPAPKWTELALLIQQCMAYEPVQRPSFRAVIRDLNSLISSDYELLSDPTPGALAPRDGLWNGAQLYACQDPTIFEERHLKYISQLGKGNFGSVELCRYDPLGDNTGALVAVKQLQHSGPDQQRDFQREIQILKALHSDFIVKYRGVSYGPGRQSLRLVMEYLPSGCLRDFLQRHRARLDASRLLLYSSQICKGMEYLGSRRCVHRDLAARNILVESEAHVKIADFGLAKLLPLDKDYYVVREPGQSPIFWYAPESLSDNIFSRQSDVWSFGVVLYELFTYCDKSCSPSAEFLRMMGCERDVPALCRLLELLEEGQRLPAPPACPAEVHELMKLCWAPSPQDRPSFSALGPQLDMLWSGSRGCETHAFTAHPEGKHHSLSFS

SMILES: CCc1cc(O)ccc1-c1ccc2c(-c3nc(C4=CCCN(C5CN(C)C5)C4)c[nH]3)n[nH]c2c1F [Example 195]
- Ki (JAK1): 0.1 to 1 nM
- Ki (TYK2): 1 to 10 nM
- IC50 [1]: 31.6 to 100 nM
- Ki (JAK2): 0.1 to 1 nM
- Ki (JAK3): 0.1 to 1 nM

SMILES: CCc1cc(O)ccc1-c1ccc2c(-c3nc(C4=CCCN(C[C@@H]5COCCN5)C4)c[nH]3)n[nH]c2c1F [Example 196]
- Ki (JAK1): 1 to 10 nM
- Ki (TYK2): 10 to 100 nM
- IC50 [1]: 31.6 to 100 nM
- Ki (JAK2): 0.1 to 1 nM
- Ki (JAK3): 0.1 to 1 nM

SMILES: CCc1cc(O)ccc1-c1ccc2c(-c3nc(C4=CCN(C5CCN(C)CC5)C4)c[nH]3)n[nH]c2c1 [Example 199]
- JAK1 pKi (JAK1): A (A represents a pKi value ≥10 (Ki≤0.1 nM))
- Ki (TYK2): 0.1 to 1 nM
- IC50 [1]: 3.16 to 10 nM
- JAK2 pKi (JAK2): A (A represents a pKi value ≥10 (Ki≤0.1 nM))
- Ki (JAK3): 0.1 to 1 nM

SMILES: CCc1cc(O)ccc1-c1ccc2c(-c3nc(C4=CCN(C[C@@H]5COCCN5)C4)c[nH]3)n[nH]c2c1F [Example 205]
- Ki (JAK1): 0.1 to 1 nM
- Ki (TYK2): 1 to 10 nM
- IC50 [1]: 10 to 31.6 nM
- Ki (JAK2): 0.1 to 1 nM
- Ki (JAK3): 0.1 to 1 nM

SMILES: CCc1cc(O)ccc1-c1ccc2c(-c3nc(C4=CCN(CCN5CCOCC5)C4)c[nH]3)n[nH]c2c1F [Example 206]
- Ki (JAK1): 0.1 to 1 nM
- Ki (TYK2): 1 to 10 nM
- IC50 [1]: 10 to 31.6 nM
- JAK2 pKi (JAK2): A (A represents a pKi value ≥10 (Ki≤0.1 nM))
- Ki (JAK3): 0.1 to 1 nM

SMILES: CCc1cc(O)ccc1-c1ccc2c(-c3nc(C4=CCN(C5CCNC5)CC4)c[nH]3)n[nH]c2c1F (stereo not drawn) [Example 207]
- Ki (JAK1): 0.1 to 1 nM
- Ki (TYK2): 1 to 10 nM
- IC50 [1]: 100 to 316 nM
- JAK2 pKi (JAK2): A (A represents a pKi value ≥10 (Ki≤0.1 nM))
- Ki (JAK3): 0.1 to 1 nM

SMILES: CCc1cc(O)ccc1-c1ccc2c(-c3nc(C4=CCN(C5CCN(C)C5)CC4)c[nH]3)n[nH]c2c1F (stereo not drawn) [Example 208]
- Ki (JAK1): 0.1 to 1 nM
- Ki (TYK2): 1 to 10 nM
- IC50 [1]: 10 to 31.6 nM
- JAK2 pKi (JAK2): A (A represents a pKi value ≥10 (Ki≤0.1 nM))
- Ki (JAK3): 0.1 to 1 nM

SMILES: CCc1cc(O)ccc1-c1ccc2c(-c3nc(C4=CCN(CCN(C)C)CC4)c[nH]3)n[nH]c2c1F [Example 209]
- Ki (JAK1): 0.1 to 1 nM
- Ki (TYK2): 1 to 10 nM
- IC50 [1]: 10 to 31.6 nM
- JAK2 pKi (JAK2): A (A represents a pKi value ≥10 (Ki≤0.1 nM))
- Ki (JAK3): 0.1 to 1 nM

SMILES: CCc1cc(O)ccc1-c1ccc2c(-c3nc(C4=CCN(C5CCCN(C)C5)CC4)c[nH]3)n[nH]c2c1F (stereo not drawn) [Example 212]
- Ki (JAK1): 0.1 to 1 nM
- Ki (TYK2): 1 to 10 nM
- IC50 [1]: 10 to 31.6 nM
- JAK2 pKi (JAK2): A (A represents a pKi value ≥10 (Ki≤0.1 nM))
- Ki (JAK3): 0.1 to 1 nM

SMILES: CCc1cc(O)ccc1-c1ccc2c(-c3nc(C4=CCN(C(C)CN)CC4)c[nH]3)n[nH]c2c1F (stereo not drawn) [Example 213]
- Ki (JAK1): 0.1 to 1 nM
- Ki (TYK2): 10 to 100 nM
- IC50 [1]: 100 to 316 nM
- Ki (JAK2): 0.1 to 1 nM
- Ki (JAK3): 0.1 to 1 nM

SMILES: CCc1cc(O)ccc1-c1ccc2c(-c3nc(C4=CCCN(C5CCNC5)C4)c[nH]3)n[nH]c2c1F (stereo not drawn) [Example 214]
- Ki (JAK1): 0.1 to 1 nM
- Ki (TYK2): 10 to 100 nM
- IC50 [1]: 316 to 1000 nM
- JAK2 pKi (JAK2): A (A represents a pKi value ≥10 (Ki≤0.1 nM))
- Ki (JAK3): 0.1 to 1 nM

SMILES: CCc1cc(O)ccc1-c1ccc2c(-c3nc(C4=CCCN(C5CCN(C)C5)C4)c[nH]3)n[nH]c2c1F (stereo not drawn) [Example 215]
- Ki (JAK1): 1 to 10 nM
- Ki (TYK2): 1 to 10 nM
- IC50 [1]: 31.6 to 100 nM
- Ki (JAK2): 0.1 to 1 nM
- Ki (JAK3): 0.1 to 1 nM

SMILES: CCc1cc(O)ccc1-c1ccc2c(-c3nc(C4=CCCN(C5CCCN(C)C5)C4)c[nH]3)n[nH]c2c1F (stereo not drawn) [Example 217]
- Ki (JAK1): 1 to 10 nM
- Ki (TYK2): 1 to 10 nM
- IC50 [1]: 31.6 to 100 nM
- Ki (JAK2): 0.1 to 1 nM
- Ki (JAK3): 0.1 to 1 nM

SMILES: CCc1cc(O)ccc1-c1ccc2c(-c3nc(C4=CCN(C5CCNC5)C4)c[nH]3)n[nH]c2c1F (stereo not drawn) [Example 218]
- JAK1 pKi (JAK1): A (A represents a pKi value ≥10 (Ki≤0.1 nM))
- Ki (TYK2): 1 to 10 nM
- IC50 [1]: 31.6 to 100 nM
- JAK2 pKi (JAK2): A (A represents a pKi value ≥10 (Ki≤0.1 nM))
- Ki (JAK3): 0.1 to 1 nM

SMILES: CCc1cc(O)ccc1-c1ccc2c(-c3nc(C4=CCN(C5CCN(C)C5)C4)c[nH]3)n[nH]c2c1F (stereo not drawn) [Example 219]
- Ki (JAK1): 0.1 to 1 nM
- Ki (TYK2): 0.1 to 1 nM
- IC50 [1]: 10 to 31.6 nM
- JAK2 pKi (JAK2): A (A represents a pKi value ≥10 (Ki≤0.1 nM))
- Ki (JAK3): 0.1 to 1 nM
